Columns and labels:
[1] = biological target: Calcium/calmodulin-dependent protein kinase type II subunit delta (Homo sapiens) (UniProt Q13557); experiment: Selectivity interaction (KinomeScan (DiscoverX)) EUB0000229b CAMK2D; conditions: at 10 µM
[2] = biological target: Dual specificity tyrosine-phosphorylation-regulated kinase 1B (Homo sapiens, UniProt Q9Y463); experiment: Selectivity interaction (Enzymatic assay) EUB0001550a DYRK1B
[3] = biological target: T1, Interleukin-1 receptor-associated kinase 3 (Homo sapiens) (UniProt Q9Y616); experiment: Selectivity interaction (ActivX KiNativ screen (kinase selectivity in THP-1 cell lysates)) EUB0000639a IRAK3; format: subcellular; conditions: lysate, at 0.04 µM
T1 sequence (whole entry): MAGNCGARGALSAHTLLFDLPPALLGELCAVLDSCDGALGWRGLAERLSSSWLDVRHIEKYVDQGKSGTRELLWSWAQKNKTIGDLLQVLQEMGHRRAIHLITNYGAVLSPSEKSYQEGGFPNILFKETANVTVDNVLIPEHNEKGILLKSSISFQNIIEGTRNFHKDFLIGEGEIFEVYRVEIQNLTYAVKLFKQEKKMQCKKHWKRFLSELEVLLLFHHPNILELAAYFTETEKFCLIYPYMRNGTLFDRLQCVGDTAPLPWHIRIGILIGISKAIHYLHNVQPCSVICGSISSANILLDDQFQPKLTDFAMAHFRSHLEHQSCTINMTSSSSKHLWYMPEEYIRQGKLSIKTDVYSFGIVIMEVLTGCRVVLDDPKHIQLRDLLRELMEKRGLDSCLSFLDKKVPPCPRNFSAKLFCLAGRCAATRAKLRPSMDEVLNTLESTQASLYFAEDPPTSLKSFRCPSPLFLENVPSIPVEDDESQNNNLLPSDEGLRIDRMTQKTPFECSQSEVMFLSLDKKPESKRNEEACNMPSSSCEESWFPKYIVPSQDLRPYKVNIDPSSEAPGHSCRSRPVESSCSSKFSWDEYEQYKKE

[4] = biological target: T2, Mitogen-activated protein kinase kinase kinase kinase 3 (Homo sapiens) (UniProt Q8IVH8); experiment: Selectivity interaction (KinomeScan (DiscoverX)) EUB0000695a MAP4K3; conditions: at 100 nM
T2 sequence (whole entry): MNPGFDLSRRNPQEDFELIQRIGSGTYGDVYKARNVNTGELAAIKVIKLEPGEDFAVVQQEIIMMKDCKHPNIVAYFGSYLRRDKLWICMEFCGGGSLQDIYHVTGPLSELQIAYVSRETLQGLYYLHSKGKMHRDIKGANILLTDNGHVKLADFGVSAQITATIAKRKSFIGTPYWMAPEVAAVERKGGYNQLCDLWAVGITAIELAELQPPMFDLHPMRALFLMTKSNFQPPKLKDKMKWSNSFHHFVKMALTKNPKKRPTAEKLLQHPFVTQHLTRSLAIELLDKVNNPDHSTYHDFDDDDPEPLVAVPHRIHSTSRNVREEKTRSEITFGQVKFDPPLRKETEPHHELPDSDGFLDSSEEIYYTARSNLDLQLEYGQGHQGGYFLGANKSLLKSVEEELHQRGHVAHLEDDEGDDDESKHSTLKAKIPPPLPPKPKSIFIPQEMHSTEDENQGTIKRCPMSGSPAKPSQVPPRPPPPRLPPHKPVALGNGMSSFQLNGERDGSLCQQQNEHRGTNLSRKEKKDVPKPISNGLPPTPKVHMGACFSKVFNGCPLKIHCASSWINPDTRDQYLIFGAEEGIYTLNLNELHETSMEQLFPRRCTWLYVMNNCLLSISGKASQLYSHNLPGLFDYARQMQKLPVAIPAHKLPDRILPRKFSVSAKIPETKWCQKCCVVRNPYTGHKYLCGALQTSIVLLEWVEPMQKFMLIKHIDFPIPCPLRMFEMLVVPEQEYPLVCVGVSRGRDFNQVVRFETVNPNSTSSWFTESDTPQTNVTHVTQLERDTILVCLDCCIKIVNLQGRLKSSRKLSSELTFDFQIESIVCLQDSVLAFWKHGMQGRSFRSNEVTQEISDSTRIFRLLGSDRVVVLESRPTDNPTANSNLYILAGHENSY

[5] = biological target: T3, Cyclin-dependent kinase-like 5 (Homo sapiens) (UniProt O76039); experiment: Selectivity interaction (KinomeScan (DiscoverX)) EUB0001619a CDKL5; conditions: at 1 µM
T3 sequence (whole entry): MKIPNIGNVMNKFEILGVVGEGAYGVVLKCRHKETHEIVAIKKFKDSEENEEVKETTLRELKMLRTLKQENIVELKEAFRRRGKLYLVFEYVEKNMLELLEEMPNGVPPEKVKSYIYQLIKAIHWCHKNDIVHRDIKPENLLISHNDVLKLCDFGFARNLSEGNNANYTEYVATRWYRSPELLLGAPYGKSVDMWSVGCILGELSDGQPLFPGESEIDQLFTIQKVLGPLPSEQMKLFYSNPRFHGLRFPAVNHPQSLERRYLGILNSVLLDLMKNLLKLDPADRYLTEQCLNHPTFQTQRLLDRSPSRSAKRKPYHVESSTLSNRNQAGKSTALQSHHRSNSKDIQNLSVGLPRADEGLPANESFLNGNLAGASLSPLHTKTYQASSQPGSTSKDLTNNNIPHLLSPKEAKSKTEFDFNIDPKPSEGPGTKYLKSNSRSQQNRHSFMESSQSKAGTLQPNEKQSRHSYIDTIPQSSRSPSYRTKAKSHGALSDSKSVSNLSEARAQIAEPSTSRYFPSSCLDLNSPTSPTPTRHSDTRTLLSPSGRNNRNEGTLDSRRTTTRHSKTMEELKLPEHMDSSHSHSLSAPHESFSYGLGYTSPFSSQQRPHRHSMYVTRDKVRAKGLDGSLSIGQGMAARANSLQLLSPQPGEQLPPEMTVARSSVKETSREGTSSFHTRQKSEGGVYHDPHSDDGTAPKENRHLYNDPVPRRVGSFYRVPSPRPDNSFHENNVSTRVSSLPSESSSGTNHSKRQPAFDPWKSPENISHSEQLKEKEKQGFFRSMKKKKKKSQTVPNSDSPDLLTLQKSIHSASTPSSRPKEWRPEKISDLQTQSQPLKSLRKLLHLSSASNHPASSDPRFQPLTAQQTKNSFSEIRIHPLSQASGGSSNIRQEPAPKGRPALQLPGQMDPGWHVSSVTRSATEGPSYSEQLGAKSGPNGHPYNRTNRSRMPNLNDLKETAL

[6] = biological target: Dual specificity mitogen-activated protein kinase kinase 1 (Homo sapiens, UniProt Q02750); experiment: Selectivity interaction (KinomeScan (DiscoverX)) EUB0001619a MAP2K1; conditions: at 1 µM
Chain of Dual specificity mitogen-activated protein kinase kinase 1 (Q02750 whole entry): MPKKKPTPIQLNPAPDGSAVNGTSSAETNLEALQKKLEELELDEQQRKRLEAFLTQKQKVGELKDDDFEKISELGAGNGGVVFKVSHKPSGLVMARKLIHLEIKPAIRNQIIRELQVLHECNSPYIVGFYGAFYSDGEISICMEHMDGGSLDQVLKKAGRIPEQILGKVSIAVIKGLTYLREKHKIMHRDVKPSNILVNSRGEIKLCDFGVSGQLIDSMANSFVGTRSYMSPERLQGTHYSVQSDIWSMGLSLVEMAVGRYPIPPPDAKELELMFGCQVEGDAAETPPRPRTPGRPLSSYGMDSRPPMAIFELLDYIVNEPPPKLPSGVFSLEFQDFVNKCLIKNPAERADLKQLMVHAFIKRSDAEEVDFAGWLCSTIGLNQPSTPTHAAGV

Chain of Dual specificity tyrosine-phosphorylation-regulated kinase 1B (Q9Y463 whole entry): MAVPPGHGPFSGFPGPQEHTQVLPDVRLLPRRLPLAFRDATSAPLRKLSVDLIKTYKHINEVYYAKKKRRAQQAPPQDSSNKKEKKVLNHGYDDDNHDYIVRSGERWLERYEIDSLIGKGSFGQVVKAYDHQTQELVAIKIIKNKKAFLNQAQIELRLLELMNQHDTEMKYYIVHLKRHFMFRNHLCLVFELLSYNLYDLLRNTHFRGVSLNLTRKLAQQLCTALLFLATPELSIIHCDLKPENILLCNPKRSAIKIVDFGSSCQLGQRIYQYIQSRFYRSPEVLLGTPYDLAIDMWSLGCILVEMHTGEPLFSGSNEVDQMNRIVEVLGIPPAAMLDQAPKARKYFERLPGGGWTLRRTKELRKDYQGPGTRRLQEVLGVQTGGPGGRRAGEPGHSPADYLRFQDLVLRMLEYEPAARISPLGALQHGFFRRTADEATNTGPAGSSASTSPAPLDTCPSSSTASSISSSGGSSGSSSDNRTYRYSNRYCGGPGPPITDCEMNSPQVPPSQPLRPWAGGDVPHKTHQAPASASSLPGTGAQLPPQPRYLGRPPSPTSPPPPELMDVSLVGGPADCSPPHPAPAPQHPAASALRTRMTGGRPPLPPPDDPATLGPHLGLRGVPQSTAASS
Chain of Calcium/calmodulin-dependent protein kinase type II subunit delta (Homo sapiens) (Q13557 whole entry): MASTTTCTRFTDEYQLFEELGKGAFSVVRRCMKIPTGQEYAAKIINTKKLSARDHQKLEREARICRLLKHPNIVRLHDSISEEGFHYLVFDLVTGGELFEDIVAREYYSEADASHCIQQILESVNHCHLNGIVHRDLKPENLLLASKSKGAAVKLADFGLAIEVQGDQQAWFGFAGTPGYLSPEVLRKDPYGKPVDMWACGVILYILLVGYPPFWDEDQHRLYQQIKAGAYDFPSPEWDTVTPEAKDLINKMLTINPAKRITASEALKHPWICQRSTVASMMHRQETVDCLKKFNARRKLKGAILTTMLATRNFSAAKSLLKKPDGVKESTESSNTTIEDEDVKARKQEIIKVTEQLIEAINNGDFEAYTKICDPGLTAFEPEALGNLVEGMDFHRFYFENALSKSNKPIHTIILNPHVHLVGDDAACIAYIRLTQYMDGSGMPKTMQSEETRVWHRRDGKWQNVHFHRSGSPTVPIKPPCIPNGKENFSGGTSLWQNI

In the case of `COc1cc(N(C)c2ccnc3ccc(C(F)(F)F)cc23)cc(OC)c1OC`, the % binding [1] is reported as 95%.
Work on `CN(C)CC#Cc1ccc2[nH]c3c(c2c1)-c1nc(N)ncc1CCC3` yielded an IC50 [2] of 380 nM.
With `CC[C@@H]1[C@H](F)C(=O)N[C@@H]1COc1nccc2cc(C(N)=O)c(OC)cc12` [ZIMLOVISERTIB] the % of inhibition [3] was -1.7%.
With `Cc1cc(F)c(C(=O)Nc2cccc(-c3nncn3C(C)C)n2)cc1-n1cnc(C2CC2)c1` the % of control [4] was 70%.
Compound `N#Cc1cccc(-c2c[nH]c3ncnc(N4CCOCC4)c23)c1` has a % of control [5] of 100% and a % of control [6] of 13%.
